These molecules were tested on Vaccinia virus (assay: Antiviral activity against Vaccinia virus Lederle infected in HEL cells assessed as inhibition of viral-induced cytopathogenicity). Conditions: Orthopoxvirus vaccinia.
Format: functional, organism-based

`C#C[C@]1(CO)S[C@@H](n2ccc(N)nc2=O)C[C@@H]1O` was tested. Which EC50 did it give?
Its EC50 is 6.5 µM.

With `C#C[C@]1(CO)S[C@@H](n2cnc3c(N)ncnc32)C[C@@H]1O` as the molecule, how does the EC50 read?
Its EC50 is 52 µM.

Which EC50 does the source give for `C#C[C@]1(CO)S[C@@H](n2cnc3c(=O)[nH]c(N)nc32)C[C@@H]1O` here?
The EC50 was 27 µM.

`Nc1nc2c(ncn2COC(CO)CO)c(=O)[nH]1` [GANCICLOVIR] was tested. Which EC50 did it give?
Its EC50 is 100 µM.

From ChEMBL document CHEMBL2010784 (ACS Med Chem Lett, 2011)
